Laboratory results published in patent US7659289B2, “Hydroxyethylene-based β-secretase inhibitors and use thereof” (CoMentis, Inc., priority 2004, dated 2010).

Experiments:
[1] = biological target: memapsin 2 (Homo sapiens, UniProt P56817); assay: Inhibition of memapsin 2 beta-secretase activity toward fluorogenic substrate FS-2; type: biochemical; conditions: pH 4, 37° C., 20 minutes pre-incubation, fluorogenic substrate FS-2, tight-binding model; read-out: M2 Ki
[2] = biological target: Cathepsin D (Homo sapiens, UniProt P07339); assay: Inhibition of cathepsin D activity (MALDI-TOF, substrate peptide […]); type: biochemical; conditions: pH 4.1, 37 degrees C., read-out: Cath D Ki
Cathepsin D, sequence (P07339 65-412, species assumed): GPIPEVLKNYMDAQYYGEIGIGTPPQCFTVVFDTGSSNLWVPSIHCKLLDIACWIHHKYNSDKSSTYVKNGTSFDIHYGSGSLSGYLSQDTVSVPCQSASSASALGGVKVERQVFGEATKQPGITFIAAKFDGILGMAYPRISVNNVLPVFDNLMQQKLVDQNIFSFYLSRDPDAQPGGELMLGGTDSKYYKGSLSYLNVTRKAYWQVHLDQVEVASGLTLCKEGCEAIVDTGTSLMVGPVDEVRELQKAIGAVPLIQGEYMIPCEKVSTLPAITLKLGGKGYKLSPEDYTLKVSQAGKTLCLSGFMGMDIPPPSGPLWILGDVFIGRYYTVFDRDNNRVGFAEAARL

memapsin 2, sequence (P56817 46-501): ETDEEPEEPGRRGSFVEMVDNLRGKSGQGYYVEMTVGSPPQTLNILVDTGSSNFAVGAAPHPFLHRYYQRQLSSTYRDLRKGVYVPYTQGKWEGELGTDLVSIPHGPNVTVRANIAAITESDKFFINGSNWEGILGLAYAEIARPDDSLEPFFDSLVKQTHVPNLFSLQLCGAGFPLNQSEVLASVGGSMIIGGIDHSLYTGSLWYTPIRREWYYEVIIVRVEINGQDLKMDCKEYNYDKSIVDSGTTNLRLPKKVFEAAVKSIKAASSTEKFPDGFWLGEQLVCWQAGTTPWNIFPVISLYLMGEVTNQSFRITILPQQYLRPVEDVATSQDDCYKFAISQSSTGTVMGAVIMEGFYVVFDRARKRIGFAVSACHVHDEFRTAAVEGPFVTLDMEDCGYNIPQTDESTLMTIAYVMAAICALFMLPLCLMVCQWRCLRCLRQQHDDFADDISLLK

Row | SMILES | Ki [1] [µM] | Ki [2] [µM]
1 | Cc1nc(COC(=O)N[C@@H](CC(=O)N(C)C)C(=O)N[C@@H](CC(C)C)[C@@H](O)C[C@@H](C)C(=O)N[C@H](C(=O)NCC(C)C)C(C)C)c(C)o1 [(2,5-dimethyloxazol-4-yl)methyl (5S,8S,9S,11R,14S)-9-hydroxy-8-isobutyl-14-isopropyl-2,11,18-trimethyl-3,6,12,15-tetraoxo-2,7,13,16-tetraazanonadecan-5-ylcarbamate] | 0.1 to 0.6 | –
2 | CC[C@H](Cn1nc(C)cc1C)C(=O)N[C@@H](CNC(=O)OC(C)(C)C)C(=O)N[C@@H](CC(C)C)[C@@H](O)C[C@@H](C)C(=O)N[C@H](C(=O)NCC(F)(F)F)C(C)C [tert-butyl (S)-2-((R)-2-((3,5-dimethyl-1H-pyrazol-1-yl)methyl)butanamido)-3-((4S,5S,7R)-5-hydroxy-2,7-dimethyl-8-((S)-3-methyl-1-oxo-1-(2,2,2-trifluoroethylamino)butan-2-ylamino)-8-oxooctan-4-ylamino)-3-oxopropylcarbamate] | > 0.6 | 0.1 to 0.6
3 | Cc1csc(C[C@H](C)C(=O)N[C@@H](CC(N)=O)C(=O)N[C@@H](CC(C)C)[C@@H](O)C[C@@H](C)C(=O)N[C@H](C(=O)NCC(C)C)C(C)C)n1 [(S)-N1-((4S,5S,7R)-5-hydroxy-8-((S)-1-(isobutylamino)-3-methyl-1-oxobutan-2-ylamino)-2,7-dimethyl-8-oxooctan-4-yl)-2-((S)-2-methyl-3-(4-methylthiazol-2-yl)propanamido)succinamide] | 0.1 to 0.6 | < 0.1
4 | Cc1nc(COC(=O)N[C@@H](CC(=O)NCc2ccncc2)C(=O)N[C@@H](CC(C)C)[C@@H](O)C[C@@H](C)C(=O)N[C@H](C(=O)NCC(C)C)C(C)C)c(C)o1 [(2,5-dimethyloxazol-4-yl)methyl (5S,8S,9S,11R,14S)-9-hydroxy-8-isobutyl-14-isopropyl-11,18-dimethyl-3,6,12,15-tetraoxo-1-(pyridin-4-yl)-2,7,13,16-tetraazanonadecan-5-ylcarbamate] | 0.1 to 0.6 | < 0.1
5 | Cc1cc(C)n(CCC(=O)N[C@@H](CC(N)=O)C(=O)N[C@@H](CC(C)C)[C@@H](O)C[C@@H](C)C(=O)N[C@H](C(=O)NCC(C)C)C(C)C)n1 [(S)-2-(3-(3,5-dimethyl-1H-pyrazol-1-yl)propanamido)-N1-((4S,5S,7R)-5-hydroxy-8-((S)-1-(isobutylamino)-3-methyl-1-oxobutan-2-ylamino)-2,7-dimethyl-8-oxooctan-4-yl)succinamide] | 0.1 to 0.6 | < 0.1
6 | Cc1nc(COC(=O)N[C@@H](CC(=O)O)C(=O)N[C@@H](CC(C)C)[C@@H](O)C[C@@H](C)C(=O)N[C@H](C(=O)NCC(C)C)C(C)C)c(C)o1 [(S)-3-(((2,5-dimethyloxazol-4-yl)methoxy)carbonylamino)-4-((4S,5S,7R)-5-hydroxy-8-((S)-1-(isobutylamino)-3-methyl-1-oxobutan-2-ylamino)2,7-dimethyl-8-oxooctan-4-ylamino)-4-oxobutanoic acid] | 0.1 to 0.6 | < 0.1
7 | COCC[C@H](NC(=O)[C@H](C)C[C@H](O)[C@H](CC(C)C)NC(=O)[C@H](CC(N)=O)NC(=O)CCn1nc(C)cc1C)C(=O)NCC(C)C [(S)-2-(3-(3,5-dimethyl-1H-pyrazol-1-yl)propanamido)-N1-((4S,5S,7R)-5-hydroxy-8-((S)-1-(isobutylamino)-4-methoxy-1-oxobutan-2-ylamino)-2,7-dimethyl-8-oxooctan-4-yl)succinamide] | > 0.6 | –
8 | CC[C@H](Cc1nc(C)cs1)C(=O)N[C@@H](CNC(=O)OC(C)(C)C)C(=O)N[C@@H](CC(C)C)[C@@H](O)C[C@@H](C)C(=O)N[C@H](C(=O)NCC(C)C)C(C)C [tert-butyl (S)-3-((4S,5S,7R)-5-hydroxy-8-((S)-1-(isobutylamino)-3-methyl-1-oxobutan-2-ylamino)-2,7-dimethyl-8-oxooctan-4-ylamino)-2-((R)-2-((4-methylthiazol-2-yl)methyl)butanamido)-3-oxopropylcarbamate] | > 0.6 | –
9 | Cc1csc(C[C@H](C)C(=O)N[C@@H](CC(=O)N(C)C)C(=O)N[C@@H](CC(C)C)[C@@H](O)C[C@@H](C)C(=O)N[C@H](C(=O)NCC(C)C)C(C)C)n1 [(S)-N1-((4S,5S,7R)-5-hydroxy-8-((S)-1-(isobutylamino)-3-methyl-1-oxobutan-2-ylamino)-2,7-dimethyl-8-oxooctan-4-yl)-N4,N4-dimethyl-2-((S)-2-methyl-3-(4-methylthiazol-2-yl)propanamido)succinamide] | 0.1 to 0.6 | < 0.1
10 | Cc1cc(C)n(CCC(=O)N[C@@H](CC(N)=O)C(=O)N[C@@H](CC(C)C)[C@@H](O)C[C@@H](C)C(=O)NC2(C(=O)NCC(C)C)CCCC2)n1 [(S)-2-(3-(3,5-dimethyl-1H-pyrazol-1-yl)propanamido)-N1-((4S,5S,7R)-5-hydroxy-8-(1-(isobutylcarbamoyl)cyclopentylamino)-2,7-dimethyl-8-oxooctan-4-yl)succinamide] | > 0.6 | –
11 | COc1ccc(C[C@H](NC(=O)[C@H](CNC(=O)OC(C)(C)C)NC(=O)[C@@H](C)Cc2nc(C)cs2)[C@@H](O)C[C@@H](C)C(=O)N[C@H](C(=O)NCC(C)C)C(C)C)cc1 [tert-butyl (S)-3-((2S,3S,5R)-3-hydroxy-6-((S)-1-(isobutylamino)-3-methyl-1-oxobutan-2-ylamino)-1-(4-methoxyphenyl)-5-methyl-6-oxohexan-2-ylamino)-2-((S)-2-methyl-3-(4-methylthiazol-2-yl)propanamido)-3-oxopropylcarbamate] | > 0.6 | < 0.1
12 | CC(=O)NC[C@H](NC(=O)OCc1nc(C)cs1)C(=O)N[C@@H](CC(C)C)[C@@H](O)C[C@@H](C)C(=O)N[C@H](C(=O)NCC(C)C)C(C)C [(4-methylthiazol-2-yl)methyl (5S,8S,9S,11R,14S)-9-hydroxy-8-isobutyl-14-isopropyl-11,18-dimethyl-2,6,12,15-tetraoxo-3,7,13,16-tetraazanonadecan-5-yicarbamate] | 0.1 to 0.6 | 0.1 to 0.6
13 | Cc1nc(COC(=O)N[C@@H](CC(N)=O)C(=O)N[C@@H](CC(C)C)[C@@H](O)C[C@@H](C)C(=O)N[C@H](C(=O)NCC(C)C)C(C)C)c(C)o1 [(2,5-dimethyloxazol-4-yl)methyl (S)-4-amino-1-((4S,5S,7R)-5-hydroxy-8-((S)-1-(isobutylamino)-3-methyl-1-oxobutan-2-ylamino)-2,7-dimethyl-8-oxooctan-4-ylamino)-1,4-dioxobutan-2-ylcarbamate] | 0.1 to 0.6 | < 0.1
14 | Cc1cc(C)n(CCC(=O)N[C@@H](CC(=O)O)C(=O)N[C@@H](CC(C)C)[C@@H](O)C[C@@H](C)C(=O)N[C@H](C(=O)NCC(C)C)C(C)C)n1 [(S)-3-(3-(3,5-dimethyl-1H-pyrazol-1-yl)propanamido)-4-((4S,5S,7R)-5-hydroxy-8-((S)-1-(isobutylamino)-3-methyl-1-oxobutan-2-ylamino)-2,7-dimethyl-8-oxooctan-4-ylamino)-4-oxobutanoic acid] | 0.1 to 0.6 | –
15 | Cc1nc(COC(=O)N[C@@H](CC(=O)OCc2ccccc2)C(=O)N[C@@H](CC(C)C)[C@@H](O)C[C@@H](C)C(=O)N[C@H](C(=O)NCC(C)C)C(C)C)c(C)o1 [(S)-benzyl 3-(((2,5-dimethyloxazol-4-yl)methoxy)carbonylamino)-4-((4S,5S,7R)-5-hydroxy-8-((S)-1-(isobutylamino)-3-methyl-1-oxobutan-2-ylamino)2,7-dimethyl-8-oxooctan-4-ylamino)-4-oxobutanoate] | < 0.1 | < 0.1
16 | Cc1csc(C[C@H](C)C(=O)N[C@@H](CC(=O)O)C(=O)N[C@@H](CC(C)C)[C@@H](O)C[C@@H](C)C(=O)N[C@H](C(=O)NCC(C)C)C(C)C)n1 [(S)-4-((4S,5S,7R)-5-hydroxy-8-((S)-1-(isobutylamino)-3-methyl-1-oxobutan-2-ylamino)-2,7-dimethyl-8-oxooctan-4-ylamino)-3-((S)-2-methyl-3-(4-methylthiazol-2-yl)propanamido)-4-oxobutanoic acid] | 0.1 to 0.6 | 0.1 to 0.6
17 | Cc1cc(C)n(CCC(=O)N[C@@H](CC(N)=O)C(=O)N[C@@H](CC(C)C)[C@@H](O)C[C@@H](C)C(=O)NC(CO)C(=O)NCC(C)C)n1 (stereo partly drawn) [(2S)-2-(3-(3,5-dimethyl-1H-pyrazol-1-yl)propanamido)-N1-((4S,5S,7R)-5-hydroxy-8-(3-hydroxy-1-(isobutylamino)-1-oxopropan-2-ylamino)-2,7-dimethyl-8-oxooctan-4-yl)succinamide] | > 0.6 | –
18 | Cc1cc(C)n(CCC(=O)N[C@@H](CC(=O)OCc2ccccc2)C(=O)N[C@@H](CC(C)C)[C@@H](O)C[C@@H](C)C(=O)N[C@H](C(=O)NCC(C)C)C(C)C)n1 [(S)-benzyl 3-(3-(3,5-dimethyl-1H-pyrazol-1-yl)propanamido)-4-((4S,5S,7R)-5-hydroxy-8-((S)-1-(isobutylamino)-3-methyl-1-oxobutan-2-ylamino)-2,7-dimethyl-8-oxooctan-4-ylamino)-4-oxobutanoate] | < 0.1 | –
19 | CCNC(=O)C[C@H](NC(=O)[C@@H](C)Cc1nc(C)cs1)C(=O)N[C@@H](CC(C)C)[C@@H](O)C[C@@H](C)C(=O)N[C@H](C(=O)NCC(C)C)C(C)C [(S)-N4-ethyl-N1-((4S,5S,7R)-5-hydroxy-8-((S)-1-(isobutylamino)-3-methyl-1-oxobutan-2-ylamino)-2,7-dimethyl-8-oxooctan-4-yl)-2-((S)-2-methyl-3-(4-methylthiazol-2-yl)propanamido)succinamide] | < 0.1 | –
20 | Cc1cc(C)n(CCC(=O)N[C@@H](CC(N)=O)C(=O)N[C@@H](CC(C)C)[C@@H](O)C[C@@H](C)C(=O)NC(C)(C)C(=O)NCC(C)C)n1 [(S)-2-(3-(3,5-dimethyl-1H-pyrazol-1-yl)propanamido)-N1-((4S,5S,7R)-5-hydroxy-8-(1-(isobutylamino)-2-methyl-1-oxopropan-2-ylamino)-2,7-dimethyl-8-oxooctan-4-yl)succinamide] | > 0.6 | –
21 | Cc1cc(C)n(CC(C)C(=O)N[C@@H](CC(N)=O)C(=O)N[C@@H](CC(C)C)[C@@H](O)C[C@@H](C)C(=O)N[C@H](C(=O)NCC(C)C)C(C)C)n1 (stereo partly drawn) [(2S)-2-(3-(3,5-dimethyl-1H-pyrazol-1-yl)-2-methylpropanamido)-N1-((4S,5S,7R)-5-hydroxy-8-((S)-1-(isobutylamino)-3-methyl-1-oxobutan-2-ylamino)-2,7-dimethyl-8-oxooctan-4-yl)succinamide] | 0.1 to 0.6 | –
